Test results from patent publication US6458585B1, “Cytokine-free culture of dendritic cells” (Nexell Therapeutics Inc., priority 1996, dated 2002).

Legend:
Bulk PBMNC = assay: S100+ cells in bulk PBMNC cultures with non-cytokine additives; assay type: cell-based, human; details: day 7; average
Protocol: (§1) Immunocytochemical staining: PBS (phosphate buffered saline) was made by dissolving 5 PBS tablets into 1000 ml millipore water. Cytospin slides were soaked in PBS. Endogenous peroxidase activity was blocked by treating slides with hydrogen peroxide/PBS (2 ml 30% H2O2+30 ml PBS) for 10 min. Slides were rinsed with PBS one time. Non-specific binding sites were blocked by incubating with normal serum matching source of secondary antibody (i.e. if secondary antibody is biotinylated goat-anti-mouse, used normal goat serum) at room temp. for 15 min. in a humidified environment. Excess serum was shaken from slides and placed 100 ul of primary antibody on slide, making sure cells are covered with liquid and incubated in humidified environment, room temp, for one hour. Negative control slides were incubated with normal serum for this hour. Slides were rinsed 3 times with PBS. Slides were incubated with biotinylated antibody reactive against the primary antibody (i.e. if primary antibody is mouse-anti-human, use a biotinylated goat-anti-mouse antibody) for 1 hour in humidity. Slides were rinsed 3 times with PBS. Slides were incubated with streptavidin-peroxidase, 2 drops/slide, for 30 min. in humidity. Slides were rinsed 3 times with PBS.
(§2) Chromagen solution was made with 5 ml millipore water+2 drops of chromagen buffer+1 drop of concentrated chromagen+1 drop of substrate, and 4-5 drops were added to each slide. […] Slides were counterstained with hematoxylin for about 5 min, or until cell nuclei were stained purple. Cells were rinsed with tap water and allowed to air dry. Slides were covered with crystal mount and oven dried at 80 degrees for 15 min. Slides were allowed to cool, then coversliped with mounting medium.
Culture of Bulk PBMNC: PBMNC cells were cultured in X-VIVO 15™ supplemented with 2 mM L- glutamine. Cultures were initiated at 5×^05 cells/ml in PL2417 gas-permeable containers (20 ml). GM-CSF and IL-4 were added to the cultures at final concentrations of 50 ng/ml and 1000 U/ml or non-cytokine additives such as Vitamin D3 at 2.5 uM, Vitamin E at 0.1%, Linoleic Acid at 5 ug/ml, or Ca++ Ionophore at 10 mM. Addition and subtraction of cells, media, and growth factors to and from PL2417 gas-permeable containers was accomplished by spiking a Sampling Site Coupler into the sample port of the container followed by use of syringes and needles. Cells were cultured in a 5% CO2, ambient O2, 37° C. humidified incubator for 7 days.
(§3) Cytospin slide preparation, Wright-Geimsa and immunohistochemical staining of the cultured cells were conducted as described in Example 1 and 2 above. Mixed lymphocyte reactions (MLR's) were setup using T cells (responders) and dendritic cell enriched cultures (stimulators) from bulk PBMNC cultures, as described above in Example 1.
The S100 protein is a nerve cell protein that has been associated with dendritic cells. In Table 47, at day 7 of culture, the highest percent of S100+ cells was present in the GM-CSF/IL-4 culture (13%).

adherent PBMNC = assay: S100 immunohistochemistry of plastic adherent cells cultured with non-cytokine additives; assay type: cell-based, human; details: for percentage of S100+ cells: without GM-CSF added to additives
Protocol: as §1, with “Endogenous peroxidase activity was blocked by treating slides with hydrogen peroxide/PBS (2 ml 30% H2O2+30 ml PBS) for 10 min.” left out
as §2
Enrichment and Culture of Adherent Cells Using Polystyrene Tissue Culture Plates: PBMNC were resuspended in culture media (X-VIVO 15™+10% autologous serum) at 2×10^6 cells/ml. Cells were placed into 48 well polystyrene tissue culture plates […] and incubated for 2 hours in a 5% CO2, ambient O2, 37° C. humidified incubator. Non-adherent cells were removed from the plates then wells were rinsed with X-VIVO 15™ containing no serum. Cells remaining in the wells were adherent cells. These cells were cultured by adding 2 ml of X-VIVO 15™ to each well plus GM-CSF and IL-4 at final concentrations of 50 ng/ml and 1000 U/ml or the following: cAMP at 0.5 mM, dibutyryl cAMP at 0.1 mM, NaF at 0.25 mM, theophylline at 0.5 mM, PGE at 0.1 mM, Vitamin D3 at 2.5 uM, Vitamin E at 0.1%, Retinoic Acid at 10^−6 M, PMA at 1 pM, Linoleic Acid at 5 ug/ml, or Ca^++ Ionophore at 10 mM. Furthermore, cells were also cultured with the above non-cytokine additives plus GM-CSF at 50 ng/ml. Cells were cultured in a 5% CO2, ambient O2, 37° C. humidified incubator for 7 days.
as §3
Results: In the set of experiments using plastic adherent cells grown in polystyrene tissue culture plates, a Day 0 analysis of the cells was not performed. However, these cultures were analyzed for the presence of DC on days 4 and 7. Analysis perfomed were cell counts, viability via propidium iodide, morphology under Wright-Geimsa staining, and immunohistochemical staining using an anti-S100 antibody.

Compound: CCCCC/C=C\C/C=C\CCCCCCCC(=O)O [Linoleic Acid]
- percent of S100+ cells (Bulk PBMNC): equivalent average percentages
- % S100+ (adherent PBMNC; Day 4, with GM-CSF present): 12.00%
- % S100+ (adherent PBMNC; Day 4, without GM-CSF): 20.00%
- % S100+ (adherent PBMNC; Day 7, with GM-CSF present): 26.00%
- % S100+ (adherent PBMNC; Day 7, without GM-CSF): 25.00%
- percentage of S100+ cells (adherent PBMNC; day 4): 20%
- percentage of S100+ cells (adherent PBMNC; day 7): next highest percentages
